{
  "source": "patent US9376700B2",
  "about": "“Methods of modifying N-termini of a peptide or protein using transferases” (The Trustees of the University of Pennsylvania, priority 2012, dated 2016)",
  "format_in_all_cases": "biochemical",
  "key": {"[1]": {"biological_target": "T1, E. coli aminoacyl tRNA transferase (AaT) (Escherichia coli, UniProt P0A8P1)", "T1 construct": "made in house; host or cells: E. coli BL21-Gold (DE3), plasmid pEG6, Ni-NTA purified", "T1 sequence (P0A8P1 whole entry)": "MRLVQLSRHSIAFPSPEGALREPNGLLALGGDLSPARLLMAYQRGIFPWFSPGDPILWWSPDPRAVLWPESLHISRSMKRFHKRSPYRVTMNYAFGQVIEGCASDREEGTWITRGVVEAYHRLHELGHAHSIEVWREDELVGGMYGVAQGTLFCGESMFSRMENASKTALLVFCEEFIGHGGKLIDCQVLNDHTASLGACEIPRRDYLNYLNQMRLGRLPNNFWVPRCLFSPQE", "assay": "AaT-catalyzed α-casein N-terminal modification (Edman degradation, tryptic digest MALDI MS)", "settings": "double addition of donor", "description": "HEPES pH 8.0, 1.50 mM KO, 10 mM MgCl2) and AaT (0.05 mg). The reaction mixture was incubated at 37° C. for 12 h, AaT was removed using Ni^2+ resin (Ni-NTA Superflow, Qiagen), and then buffer exchanged four times into phosphate buffered saline (PBS, 12 mM NaH2PO4, 50 mM NaCl, 4.7 mM KCl, pH 8.0) by Spectra/Por 1 dialysis tubing (Spectrum Laboratories; Rancho Dominguez, Calif.). Azf-modified α-casein was used directly after buffer exchange into PBS. Aliquots (1 nmol) of α-casein were diluted into PBS (22 μL) containing either fluorescein-alkyne (FlAlk, 91 μM) or propargylamine (Alk, 227 μM) for copper-catalyzed azide-alkyne cycloaddition (CuAAC). […] Reactions were boiled with gel loading dye LDS (Pierce; Rockford, Ill.) for 10 min at 95° C. and analyzed by SDS-PAGE. Fluorescence images were obtained with a Geldoc (BioRAD; Hercules, Calif.) using an excitation wavelength of 302 nm for detection of fluorescein. α-Casein was also directly visualized by Coomassie Brilliant Blue staining.\nα-Casein-Azf (33 or α-casein (33 μg) was digested with sequencing grade modified Trypsin (0.6 μg) in 27 μL of 25 mM ammonium bicarbonate pH 7.5 (freshly prepared). Digestions were carried out at 37° C. for 14 h. Trypsin digest aliquots (1 μL) were combined with α-cyano-4-hydroxycinnamic acid (1 μL of a saturated solution in 1:1 H2O/CH3CN with 1% TFA) and analyzed by MALDI MS. […]"}, "[2]": {"biological_target": "T1, E. coli aminoacyl tRNA transferase (AaT)", "assay": "α-Casein labeling in cleared E. coli cell lysate with unpurified AaT, then click reaction with FlAlk", "settings": "fluorescence after labeling with FlAlk", "description": "AaT was expressed in E. coli BL21-Gold (DE3) cells as previously described. A cleared cell lysate was obtained by centrifugation following cell lysis using sonication. Protein were modified in a final reaction volume of 110 μL with Azf-A (4c, 3 mM) using AaT (25 from cleared lysate in AaT buffer (50 mM HEPES pH 8.0, 150 mM KCl, 10 mM MgCl2). α-Casein (0.012 mg or 0.12 mg) was added to the reaction and incubated at 37° C. for 2 h, after 1 h an additional 0.3 μmole of 4c was added. For control reactions, equivalent volumes were replaced with water. Excess 4c was removed by buffer exchange four times against phosphate buffered saline (PBS, 12 mM NaH2PO4, 50 mM NaCl, 4.7 mM. KCl, pH 8.0) by Spectra/Por 1 dialysis tubing. Aliquots (18 μL) of 4c modified lysates were diluted to a final volume of 22 pit using PBS containing FlAlk (182 μM) for copper-catalyzed “click” reactions. The “click” reaction was initiated by addition of CuSO4 (100 μM), THPTA (500 μM), and sodium ascorbate (5 mM). The reaction mixtures were analyzed by PAGE gel using Coomassie staining and fluorescence as above.\nAfter AaT-catalyzed modification of α-casein with Azf, residual 4c was removed by dialysis. […] Azf transfer was successful, as shown by the observation of fluorescence after labeling with FlAlk."}, "[3]": {"biological_target": "E. coli aminoacyl transferase (AaT) (Escherichia coli, UniProt P0A8P1)", "sequence (P0A8P1 whole entry)": "as above", "assay": "LysAlaAcm ligation assay: AaT-catalyzed transfer from aminoacyl adenosine donor to LysAlaAcm, HPLC at 325 nm", "set-up": "made in house; host or cells: E. coli BL21-Gold (DE3), plasmid pEG6, Ni-NTA purified", "settings": "single addition of 1 mM donor, 100 μM LysAlaAcm, 2.26 μM AaT, 37° C., 4 h, no additive", "description": "Each ligation reaction, 125 μL total volume, contained the following reagents: aminoacyl adenosine donor (1 mM), recombinant His10-tagged E. coli aminoacyl transferase (2.26 μM), and LysAlaAcm (100 μM) in the AaT Ligation Buffer (50 mM HEPES pH 8.0, 150 mm KCl, 10 mM MgCl2). The reaction mixtures were incubated at 37° C. for four hours and quenched with 1% acetic acid. The proteins were extracted from the reactions via acetone precipitation. The reactions were precipitated using 4× reaction volume of acetone and cooled at −20° C. for 1 h. Next, the reactions were centrifuged at 13,200 rpm at 4° C. for 20 min to separate the reaction from precipitated protein. The supernatant was transferred to fresh 1.5 mL centrifuge tubes and allowed for acetone evaporation overnight at room temperature. After acetone evaporation, the supernatant was dried in a Speedvac (Savant, Thermo Scientific, Fisher Inc.) for 30 min to remove residual acetone. The resulting reaction volume was dissolved up to 1.2 mL using Milli-Q water and analyzed by HPLC (gradient below) to determine ligation yield by integration of separated peak intensities monitored at 325 nm. Collected HPLC fractions were characterized through MALDI MS analysis. […] Reactions using Phe-pdCpA as donor were carried out in an identical fashion (Ellman, et al., 1991, Methods Enzymol. 202:301-336).\nAll HPLC analyses of LysAlaAcm ligations were monitored on an Agilent HPLC using a Waters C18 column (Milford, Mass.).\nAll HPLC analyses of LysAlaAcm ligations were monitored as described elsewhere herein (Gradient 1).\nThe extent of transfer was evaluated by HPLC analysis of reactions with adenosyl donor, AaT or BpT, and an aminocoumarin-labeled reporter peptide (for AaT, LysAlaAcm was used as previously described by Tirrell and co-workers; for BpT, AspAlaAcm was used in an analogous fashion) (Connor et al., 2008, ChemBioChem 9:366-369). Monitoring LysAlaAcm or AspAlaAcm acylation in crude reaction mixtures using absorbance at 325 nm conveniently eliminates background due to other proteins and nucleic acids, although some non-natural amino acids such as naphthylalanine (Nap) and methoxycoumarinylalanine (Mcm) also absorb in this range.\nTo evaluate substrate scope, reactions were analyzed after 4 h, when transfer should be complete for the fully enzymatic reaction with Phe tRNA synthetase (Connor et al., 2008, ChemBioChem 9:366-369)."}},
  "data": [
    {"smiles": "[N-]=[N+]=Nc1ccc(C[C@H](N)C(=O)O[C@@H]2[C@H](O)[C@@H](CO)O[C@H]2n2cnc3c(N)ncnc32)cc1", "note": "[4c, (S)-(2R,3R,4R,5R)-2-(6-amino-9H-purin-9-yl)-4-hydroxy-5-(hydroxymethyl)tetrahydrofuran-3-yl 2-amino-3-(4-azidophenyl)propanoate]", "values": [
      {"measurement": "Conversion of α-casein, trypsin digest and MALDI MS", "setting": "[1]", "value": "Complete conversion"},
      {"measurement": "Azf transfer to α-casein in crude E. coli lysate with unpurified AaT", "setting": "[2]", "value": "successful"},
      {"measurement": "Ligated Product Yield (%)", "setting": "[3]", "value": "78.5 ± 5.2", "unit": "%"}
    ]}
  ]
}
